Assays:
[1] = test system: Erysiphe graminis f. sp. tritici; assay: Test A: wheat powdery mildew, preventive spray on wheat seedlings, disease rating; assay type: in vivo, Erysiphe graminis f. sp. tritici (on wheat seedlings); details: 200 ppm test suspension sprayed to run-off (equivalent to 500 g/ha) on wheat seedlings; 100 = 100% disease control, 0 = no control; # = significant activity
Description: (§1) Test compounds were first dissolved in acetone in an amount equal to 3% of the final volume and then suspended at a concentration of 200 ppm in purified water containing 250 ppm of the surfactant Trem® 014 (polyhydric alcohol esters). The resulting test suspensions were then used in the following test. Spraying these 200 ppm test suspensions to the point of run-off on the test plants is the equivalent of a rate of 500 g/ha.
The test suspension was sprayed to the point of run-off on wheat seedlings. The following day the seedlings were inoculated with a spore dust of Erysiphe graminis f. sp. tritici, (the causal agent of wheat powdery mildew) and incubated in a growth chamber at 20° C. for 7 days, after which disease ratings were made.
(§2) Results for Tests A-E are given in Table A. In the table, a rating of 100 indicates 100% disease control and a rating of 0 indicates no disease control (relative to the controls). A dash (-) indicates no test results. ND indicates disease control not determined due to phytotoxicity. # indicates significant activity.

[2] = test system: Puccinia recondita; assay: Test B: wheat leaf rust, preventive spray on wheat seedlings, disease rating; assay type: in vivo, Puccinia recondita (on wheat seedlings); details: 200 ppm test suspension sprayed to run-off (equivalent to 500 g/ha) on wheat seedlings; 100 = 100% disease control, 0 = no control; # = significant activity
Description: as §1
(§3) The test suspension was sprayed to the point of run-off on wheat seedlings. The following day the seedlings were inoculated with a spore suspension of Puccinia recondita (the causal agent of wheat leaf rust) and incubated in a saturated atmosphere at 20° C. for 24 h, and then moved to a growth chamber at 20° C. for 6 days, after which disease ratings were made.
as §2

[3] = test system: Pyricularia oryzae; assay type: in vivo, Pyricularia oryzae (on rice seedlings); details: 200 ppm test suspension sprayed to run-off (equivalent to 500 g/ha) on rice seedlings; 100 = 100% disease control, 0 = no control; # = significant activity
[4] = test system: Phytophthora infestans; assay type: in vivo, Phytophthora infestans (on tomato seedlings); details: 200 ppm test suspension sprayed to run-off (equivalent to 500 g/ha) on tomato seedlings; 100 = 100% disease control, 0 = no control; # = significant activity
[5] = test system: Botrytis cinerea; assay: Test E: gray mold, preventive spray on cucumber seedlings, disease rating; assay type: in vivo, Botrytis cinerea (on cucumber seedlings); details: 200 ppm test suspension sprayed to run-off (equivalent to 500 g/ha) on cucumber seedlings; 100 = 100% disease control, 0 = no control; # = significant activity
Description: as §1
as §3, with “cucumber” for “wheat”, “Botrytis cinerea” for “Puccinia recondita”, “gray mold on many crops)” for “wheat leaf rust)”, “48” for “24”, “and” for “and then”, “5” for “6”
as §2

Structure (SMILES) | Test A disease control rating (wheat powdery mildew) [1] | Test B disease control rating (wheat leaf rust) [2] | Test C disease control rating (rice blast) [3] | Test D disease control rating (potato and tomato late blight) [4] | Test E disease control rating (gray mold) [5]
CC(NC(=O)C1(C)CC(C)(Cl)C1)c1cccc2ccccc12 (centres unmarked) [compound 21] | 0 (a rating of 0 indicates no disease control (relative to the controls)) | 0 (a rating of 0 indicates no disease control (relative to the controls)) | 0 (a rating of 0 indicates no disease control (relative to the controls)) | 0 (a rating of 0 indicates no disease control (relative to the controls)) | 0 (a rating of 0 indicates no disease control (relative to the controls))
CC(NC(=O)C1(C)CC(C)(Cl)C1)c1cccc2ccccc12 (centres unmarked) [compound 22] | 0 (a rating of 0 indicates no disease control (relative to the controls)) | 0 (a rating of 0 indicates no disease control (relative to the controls)) | 0 (a rating of 0 indicates no disease control (relative to the controls)) | 0 (a rating of 0 indicates no disease control (relative to the controls)) | 0 (a rating of 0 indicates no disease control (relative to the controls))
CC(NC(=O)C1(C)CC(C)(Cl)C1)c1ccc2ccccc2c1 (centres unmarked) [compound 23] | 0 (a rating of 0 indicates no disease control (relative to the controls)) | 0 (a rating of 0 indicates no disease control (relative to the controls)) | 97# % | 0 (a rating of 0 indicates no disease control (relative to the controls)) | 0 (a rating of 0 indicates no disease control (relative to the controls))
CC(NC(=O)C1(C)CC(C)(Cl)C1)c1ccc2ccccc2c1 (centres unmarked) [compound 24] | 0 (a rating of 0 indicates no disease control (relative to the controls)) | 0 (a rating of 0 indicates no disease control (relative to the controls)) | 100# (a rating of 100 indicates 100% disease control) | 0 (a rating of 0 indicates no disease control (relative to the controls)) | 0 (a rating of 0 indicates no disease control (relative to the controls))
CC(COc1cc(F)ccc1F)NC(=O)C1(C(F)(F)F)CC(C)(Cl)C1 (centres unmarked) [compound 27] | 72% | 0 (a rating of 0 indicates no disease control (relative to the controls)) | 99# % | 14% | 0 (a rating of 0 indicates no disease control (relative to the controls))
CC(COc1cc(F)ccc1F)NC(=O)C1(C(F)(F)F)CC(C)(Cl)C1 (centres unmarked) [compound 28] | 53% | 0 (a rating of 0 indicates no disease control (relative to the controls)) | 100# (a rating of 100 indicates 100% disease control) | 0 (a rating of 0 indicates no disease control (relative to the controls)) | 0 (a rating of 0 indicates no disease control (relative to the controls))
CC(COc1cc(F)ccc1F)NC(=O)C1(C)CC(C)(Cl)C1 (centres unmarked) [compound 29] | 0 (a rating of 0 indicates no disease control (relative to the controls)) | 86# % | 100# (a rating of 100 indicates 100% disease control) | 0 (a rating of 0 indicates no disease control (relative to the controls)) | 0 (a rating of 0 indicates no disease control (relative to the controls))
